Data on 1 substance can be found in patent US20210015749A1, “NANOCOCHLEATE FORMULATION AND METHOD OF PREPARING THE NANOCOCHLEATE FORMULATION” (priority 2019, published 2021).

The subject of this assay is glucocorticoid-treated rats. Nature of the assay: Biochemical tests of serum bone parameters in treatment groups of osteoporotic (prednisolone) rats. Format: in vivo, rat.
Setting [1] is: serum, * = significant difference with prednisolone group.

Vitamin D came in with a Ph (serum phosphorus) of 7.525 ± 0.4272. In addition, under setting [1], the Bone-ALP is recorded as 312 ± 24.42, the Ca amounted to 9.367 ± 0.3786, the OPG was 3.325 ± .9012 and the Osteocalcin is on record as 16.5 ± 2.121.
